Our source for the IC50 values is patent US9656988B2 (Pharmacyclics LLC, priority 2013, dated 2017).

Read-outs that look alike come from different tables or passages of the source. A value given as a limit tells only on which side of the number the result lay.

The target of the experiment is BTK (Homo sapiens (Human), UniProt Q06187). Briefly: Btk in vitro inhibitory activity (one of Method A TR-FRET, Method B electrophoretic mobility shift, Method C radiometric filter binding). In kind it is biochemical.
The mark [1] stands for this setting: determined using one of the methods of Example 355a, 355b and 355c, read-out: BTK IC50.

Chain of BTK (Q06187 whole entry): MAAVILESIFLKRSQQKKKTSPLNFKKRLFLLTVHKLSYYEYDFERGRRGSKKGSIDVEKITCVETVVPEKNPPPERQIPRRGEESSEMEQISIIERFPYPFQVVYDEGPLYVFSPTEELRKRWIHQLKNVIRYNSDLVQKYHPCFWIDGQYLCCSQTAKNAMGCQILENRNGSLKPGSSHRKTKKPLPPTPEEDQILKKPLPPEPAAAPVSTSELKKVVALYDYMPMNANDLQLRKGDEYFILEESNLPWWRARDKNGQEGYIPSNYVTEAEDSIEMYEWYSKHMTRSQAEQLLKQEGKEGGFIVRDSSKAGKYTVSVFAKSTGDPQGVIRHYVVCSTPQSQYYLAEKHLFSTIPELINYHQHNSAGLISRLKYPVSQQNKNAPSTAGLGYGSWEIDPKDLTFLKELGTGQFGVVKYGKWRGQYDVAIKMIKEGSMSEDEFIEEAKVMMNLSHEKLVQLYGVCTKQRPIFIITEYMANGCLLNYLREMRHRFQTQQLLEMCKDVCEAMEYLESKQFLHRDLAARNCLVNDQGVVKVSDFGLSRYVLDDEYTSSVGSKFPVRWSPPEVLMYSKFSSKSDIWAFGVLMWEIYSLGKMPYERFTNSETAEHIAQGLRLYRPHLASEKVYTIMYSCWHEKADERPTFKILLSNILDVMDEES

One may read the IC50 as the concentration that inhibits the measured activity by half. For the compound `CN1CCN([C@@H]2CCCN(c3cnc(C(N)=O)c(Nc4ccc(N5CCS(=O)(=O)CC5)cc4)n3)C2)C1=O` [Example 260, (R)-5-(3-(3-methyl-2-oxoimidazolidin-1-yl)piperidin-1-yl)-3-(4-(1,1-dioxothiomorpholino)phenylamino)pyrazine-2-carboxamide], the 50% inhibitory concentration (IC50) was less than 0.01 µM under setting [1] and less than 0.01 µM (read-out: Btk (IC50)).

Turning to `CN(C)C(=O)N[C@@H]1CCCN(c2cnc(C(N)=O)c(Nc3ccc(N4CCN(C5CCCC5)CC4)cc3)n2)C1` [Example 215, (R)-3-(4-(4-cyclopentylpiperazin-1-yl)phenylamino)-5-(3-(3,3-dimethylureido)piperidin-1-yl)pyrazine-2-carboxamide], the half-maximal inhibitory concentration (IC50) was less than 0.01 µM under setting [1] and less than 0.01 µM (read-out: Btk (IC50)).

In the case of `NC(=O)c1ncc(N2CCC[C@@H](NC(=O)c3cncc(Cl)c3)C2)nc1Nc1ccc(C2CCN(C3CC3)CC2)cc1` [Example 313, (R)-5-(3-(5-chloronicotinamido)piperidin-1-yl)-3-(4-(1-cyclopropylpiperidin-4-yl)phenylamino)pyrazine-2-carboxamide], the half-inhibitory concentration (IC50) under setting [1] is less than 0.01 µM and the IC50 (read-out: Btk (IC50)) was less than 0.01 µM.

For `CN(C/C=C/C(=O)N1CCC[C@@H](Nc2nnc(C(N)=O)c(Nc3ccc(C(=O)N4CCOCC4)cc3)n2)C1)C1CC1` [Example 67, (R,E)-3-(1-(4-(cyclopropyl(methyl)amino)but-2-enoyl)piperidin-3-ylamino)-5-(4-(morpholine-4-carbonyl)phenylamino)-1,2,4-triazine-6-carboxamide], the half-inhibitory concentration (IC50) under setting [1] is less than 0.01 µM.

For `CC(C)(C)c1ccc(C(=O)N[C@@H]2CCCN(c3nnc(C(N)=O)c(Nc4cncc(F)c4)n3)C2)cc1` [Example 52, (R)-3-(3-(4-tert-butylbenzamido)piperidin-1-yl)-5-(5-fluoropyridin-3-ylamino)-1,2,4-triazine-6-carboxamide], the IC50 under setting [1] lay within 0.1 to 1 µM.

As to `Cc1nc(Nc2nc(N3CCC[C@@H](NC(=O)N(C)C)C3)cnc2C(N)=O)ccc1F` [Example 184, (R)-5-(3-(3,3-dimethylureido)piperidin-1-yl)-3-(5-fluoro-6-methylpyridin-2-ylamino)pyrazine-2-carboxamide], the IC50 lay in the range of 0.1 to 1 µM. Under setting [1], the IC50 fell in the range of 1 to 10 µM.

On to `CC[C@@H]1[C@H](NC(=O)N(C)C)CCCN1c1cnc(C(N)=O)c(Nc2ccc(C3CCN(C4CCC4)CC3)cc2)n1` [Example 236, 3-(4-(1-cyclobutylpiperidin-4-yl)phenylamino)-5-((2R,3R)-3-(3,3-dimethylureido)-2-ethylpiperidin-1-yl)pyrazine-2-carboxamide], for which the IC50 reads like this: under setting [1], less than 0.01 µM; (read-out: Btk (IC50)) less than 0.01 µM.

For `C[C@@H]1[C@H](NC(=O)N(C)C)CCCN1c1cnc(C(N)=O)c(Nc2ccc(S(C)(=O)=O)cc2)n1` [Example 244, 5-((2R,3R)-3-(3,3-dimethylureido)-2-methylpiperidin-1-yl)-3-(4-(methylsulfonyl)phenylamino)pyrazine-2-carboxamide], under setting [1], the IC50 is less than 0.01 µM.

With `CCOc1ccc(C(=O)N[C@@H]2CCCN(c3nnc(C(N)=O)c(Nc4ccc(C(=N)N5CCCC5)cc4)n3)C2)cc1` [Example 343, (R)-3-(3-(4-ethoxybenzamido)piperidin-1-yl)-5-(4-(imino(pyrrolidin-1-yl)methyl)phenylamino)-1,2,4-triazine-6-carboxamide], the concentration for half-maximal inhibition (IC50) under setting [1] was less than 0.01 µM and the half-inhibitory concentration (IC50) (read-out: Btk (IC50)) was less than 0.01 µM.

On to `CN(C)C(=O)N(C)[C@@H]1CCCN(c2cnc(C(N)=O)c(Nc3ccc(C4CCN(S(C)(=O)=O)CC4)cc3)n2)C1` [Example 228, (R)-3-(4-(1-(methylsulfonyl)piperidin-4-yl)phenylamino)-5-(3-(1,3,3-trimethylureido)piperidin-1-yl)pyrazine-2-carboxamide], for which the IC50 lay within 0.01 to 0.1 µM. Further, the half-inhibitory concentration (IC50) under setting [1] fell in the range of 0.01 to 0.1 µM.

As for `CN1CCN([C@@H]2CCCN(c3cnc(C(N)=O)c(Nc4ccc(C5(C)CCN(C6CC6)CC5)cc4)n3)C2)C1=O` [Example 263, (R)-3-(4-(1-cyclopropyl-4-methylpiperidin-4-yl)phenylamino)-5-(3-(3-methyl-2-oxoimidazolidin-1-yl)piperidin-1-yl)pyrazine-2-carboxamide], the IC50 (read-out: Btk (IC50)) is less than 0.01 µM.

Regarding `NC(=O)c1ncc(N2CCC[C@@H](NC(=O)c3ccccc3)C2)nc1Nc1ccc(C2CCN(C3CCCC3)CC2)cc1` [Example 303, (R)-5-(3-benzamidopiperidin-1-yl)-3-(4-(1-cyclopentylpiperidin-4-yl)phenylamino)pyrazine-2-carboxamide], the IC50 runs as follows: under setting [1], less than 0.01 µM; (read-out: Btk (IC50)) less than 0.01 µM.

Turning to `CCOc1ccc(C(=O)N[C@@H]2CCCN(c3nnc(C(N)=O)c(Nc4ccc(C5=NCCN5C)cc4)n3)C2)cc1` [Example 344, (R)-3-(3-(4-ethoxybenzamido)piperidin-1-yl)-5-(4-(1-methyl-4,5-dihydro-1H-imidazol-2-yl)phenylamino)-1,2,4-triazine-6-carboxamide], under setting [1], the half-inhibitory concentration (IC50) was 0.01 to 0.1 µM.

Regarding `CC(C)(C)c1ccc(C(=O)N[C@@H]2CCCN(c3nnc(C(N)=O)c(Nc4ccc(-c5ncco5)cc4)n3)C2)cc1` [Example 58, (R)-3-(3-(4-tert-butylbenzamido)piperidin-1-yl)-5-(4-(oxazol-2-yl)phenylamino)-1,2,4-triazine-6-carboxamide], the 50% inhibitory concentration (IC50) under setting [1] is 0.01 to 0.1 µM.

Turning to `COc1ccc(C(=O)N[C@@H]2CCCN(c3cnc(C(N)=O)c(Nc4ccc(C5CCN(C)CC5)cc4)n3)C2)cc1` [Example 131, (R)-5-(3-(4-methoxybenzamido)piperidin-1-yl)-3-(4-(1-methylpiperidin-4-yl)phenylamino)pyrazine-2-carboxamide], the IC50 under setting [1] was less than 0.01 µM and the IC50 (read-out: Btk (IC50)) is less than 0.01 µM.

In the case of `NC(=O)c1ncc(N2CCC[C@@H](NC(=O)c3ccc(-c4ccccc4)nc3)C2)nc1Nc1ccc(C2CCN(C3CC3)CC2)cc1` [Example 319, (R)-3-(4-(1-cyclopropylpiperidin-4-yl)phenylamino)-5-(3-(6-phenylnicotinamido)piperidin-1-yl)pyrazine-2-carboxamide], the concentration for half-maximal inhibition (IC50) under setting [1] is less than 0.01 µM.

As for `NC(=O)c1ncc(N2CCC[C@@H](NC(=O)NC3CCOCC3)C2)nc1NC1CCOCC1` [Example 354, (R)-5-(3-(3-(tetrahydro-2H-pyran-4-yl)ureido)piperidin-1-yl)-3-(tetrahydro-2H-pyran-4-ylamino)pyrazine-2-carboxamide], the IC50 under setting [1] fell in the range of 1 to 10 µM.

On to `CN(C(=O)N[C@@H]1CCCN(c2cnc(C(N)=O)c(NC3CC3)n2)C1)c1ccccc1` [Example 350, (R)-3-(cyclopropylamino)-5-(3-(3-methyl-3-phenylureido)piperidin-1-yl)pyrazine-2-carboxamide], for which the half-inhibitory concentration (IC50) under setting [1] fell in the range of 1 to 10 µM.

In the case of `NC(=O)c1nnc(N2CCC[C@@H](NC(=O)N3CCOCC3)C2)nc1Nc1ccc(-c2ncco2)cc1` [Example 59, (R)—N-(1-(6-carbamoyl-5-(4-(oxazol-2-yl)phenylamino)-1,2,4-triazin-3-yl)piperidin-3-yl)morpholine-4-carboxamide], the IC50 under setting [1] lay in the range of 0.01 to 0.1 µM.

Consider `CN(C)C(=O)N[C@@H]1CCCN(c2cnc(C(N)=O)c(Nc3ccc(C(C)(C)C#N)cc3)n2)C1` [Example 197, (R)-3-(4-(2-cyanopropan-2-yl)phenylamino)-5-(3-(3,3-dimethylureido)piperidin-1-yl)pyrazine-2-carboxamide], for which the 50% inhibitory concentration (IC50) is less than 0.01 µM under setting [1] and less than 0.01 µM (read-out: Btk (IC50)).

As to `CN(C)C(=O)N[C@@H]1CCCCN(c2cnc(C(N)=O)c(Nc3ccc(C4CCN(C5CCCC5)CC4)cc3)n2)C1` [Example 327, (R)-3-(4-(1-cyclopentylpiperidin-4-yl)phenylamino)-5-(3-(3,3-dimethylureido)azepan-1-yl)pyrazine-2-carboxamide], the 50% inhibitory concentration (IC50) is, setting by setting: under setting [1], less than 0.01 µM; (read-out: Btk (IC50)) less than 0.01 µM.

For the compound `CCN1CCN([C@@H]2CCCN(c3cnc(C(N)=O)c(Nc4ccc(C5CCN(C6CCCC6)CC5)cc4)n3)C2)C1=O` [Example 275, (R)-3-(4-(1-cyclopentylpiperidin-4-yl)phenylamino)-5-(3-(3-ethyl-2-oxoimidazolidin-1-yl)piperidin-1-yl)pyrazine-2-carboxamide], the concentration for half-maximal inhibition (IC50) runs as follows: under setting [1], less than 0.01 µM; (read-out: Btk (IC50)) less than 0.01 µM.

Turning to `NC(=O)c1ncc(N2CCC[C@@H](NC(=O)c3cc4ccccc4s3)C2)nc1Nc1ccc(C2CCN(C3CC3)CC2)cc1` [Example 315, (R)-5-(3-(benzo[b]thiophene-2-carboxamido)piperidin-1-yl)-3-(4-(1-cyclopropylpiperidin-4-yl)phenylamino)pyrazine-2-carboxamide], the 50% inhibitory concentration (IC50) was 0.01 to 0.1 µM. The 50% inhibitory concentration (IC50) under setting [1] lay in the range of 0.01 to 0.1 µM.

`C[C@@H]1[C@H](NC(=O)N(C)C)CCCN1c1cnc(C(N)=O)c(Nc2ccc(C3CCN(C4CCC4)CC3)cc2)n1` [Example 238, 3-(4-(1-cyclobutylpiperidin-4-yl)phenylamino)-5-((2R,3R)-3-(3,3-dimethylureido)-2-methylpiperidin-1-yl)pyrazine-2-carboxamide]: the IC50 is less than 0.01 µM under setting [1] and less than 0.01 µM (read-out: Btk (IC50)).

As to `CCN1CCC(c2ccc(Nc3nc(N4CCC[C@@H](NC(=O)N(C)C)C4)cnc3C(N)=O)cc2)CC1` [Example 207, (R)-5-(3-(3,3-dimethylureido)piperidin-1-yl)-3-(4-(1-ethylpiperidin-4-yl)phenylamino)pyrazine-2-carboxamide], the IC50 fell in the range of 0.01 to 0.1 µM (Btk (IC50)) and 0.01 to 0.1 µM under setting [1].

Regarding `CN1CCN([C@@H]2CCCN(c3cnc(C(N)=O)c(Nc4ccc(C5(C(N)=O)CCN(C6CCCC6)CC5)cc4)n3)C2)C1=O` [Example 272, (R)-3-(4-(4-carbamoyl-1-cyclopentylpiperidin-4-yl)phenylamino)-5-(3-(3-methyl-2-oxoimidazolidin-1-yl)piperidin-1-yl)pyrazine-2-carboxamide], the half-inhibitory concentration (IC50) (read-out: Btk (IC50)) is less than 0.01 µM.

As for `NC(=O)c1nnc(N2CCC[C@@H](NC(=O)N3CCCCC3)C2)nc1Nc1cnc2ccccc2c1` [Example 108, (R)-3-(3-(piperidine-1-carboxamido)piperidin-1-yl)-5-(quinolin-3-ylamino)-1,2,4-triazine-6-carboxamide], the concentration for half-maximal inhibition (IC50) under setting [1] fell in the range of 0.1 to 1 µM.
